This test addresses T1, recombinant human 11 β-HSD1 (Homo sapiens, UniProt P28845).
T1 construct: made in house; host or cells: E. coli
In words: 11 β-HSD1 SPA Assay (Scintillation Proximity Assay). It counts as biochemical. Summed up:
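Scintillation proximity read-out of cortisol formed from 40 nM [3H]cortisone by purified recombinant human enzyme (30-100 nM, E. coli) with 1 mM NADPH, pH7.4, 2 hours at room temperature; beads with cortisol antibody and glycyrrhetinic acid stop the reaction, read next day. IC50 derived from inhibition normalised to background and maximal wells.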
For orientation: Scintillation proximity formats need no separation of bound from free tracer.

Each structure is given as a SMILES string.

T1 sequence (P28845 whole entry): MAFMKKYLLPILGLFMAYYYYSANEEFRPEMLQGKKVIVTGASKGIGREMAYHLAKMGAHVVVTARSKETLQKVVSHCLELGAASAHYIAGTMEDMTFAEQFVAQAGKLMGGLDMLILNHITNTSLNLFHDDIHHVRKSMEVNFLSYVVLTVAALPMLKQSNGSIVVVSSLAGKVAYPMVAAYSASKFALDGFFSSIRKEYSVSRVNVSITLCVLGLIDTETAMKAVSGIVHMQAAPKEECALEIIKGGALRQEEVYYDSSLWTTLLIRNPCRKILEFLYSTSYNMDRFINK

For `CC(C)(CN1CCCC1)NC(=O)c1ccc(N2[C@@H]3CC[C@H]2C[C@@H](NC(=O)C(C)(C)Oc2ccc(Cl)cc2Cl)C3)nc1` [Example 350, 6-(3-endo-{[2-(2,4-dichlorophenoxy)-2-methylpropanoyl]amino}-8-azabicyclo[3.2.1]oct-8-yl)-N-[2-methyl-1-(pyrrolidin-1-yl)propan-2-yl]pyridine-3-carboxamide], the IC50 was under 200 nM.
On to `CN(C)S(=O)(=O)c1cc(Cl)ccc1OC(C)(C)C(=O)N[C@H]1C[C@H]2CC[C@@H](C1)N2c1ccc(C(=O)NCC(F)(F)F)cn1` [Example 351, 6-[3-endo-({2-[4-chloro-2-(dimethylsulfamoyl)phenoxy]-2-methylpropanoyl}amino)-8-azabicyclo[3.2.1]oct-8-yl]-n-(2,2,2-trifluoroethyl)pyridine-3-carboxamide], for which the half-inhibitory concentration (IC50) is under 200 nM.
Regarding `COCCOc1cc(Cl)ccc1OC(C)(C)C(=O)N[C@H]1C[C@H]2CC[C@@H](C1)N2c1ccc(C(=O)NCC(F)(F)F)cn1` [Example 352, 6-[3-endo-({2-[4-chloro-2-(2-methoxyethoxy)phenoxy]-2-methylpropanoyl}amino)-8-azabicyclo[3.2.1]oct-8-yl]-N-(2,2,2-trifluoroethyl)pyridine-3-carboxamide], the IC50 is under 200 nM.
Take `CC(C)c1cc(Cl)ccc1OC(C)(C)C(=O)N[C@H]1C[C@H]2CC[C@@H](C1)N2c1ccc(C(=O)NCC(F)(F)F)cn1` [Example 353, 6-[3-endo-({2-[4-chloro-2-(propan-2-yl)phenoxy]-2-methylpropanoyl}amino)-8-azabicyclo[3.2.1]oct-8-yl]-N-(2,2,2-trifluoroethyl)pyridine-3-carboxamide]: the IC50 was under 200 nM.
Take `CC(C)(Oc1nccc2ccccc12)C(=O)N[C@H]1C[C@H]2CC[C@@H](C1)N2c1ccc(C(=O)NCC(F)(F)F)cn1` [Example 354, 6-(3-endo-{[2-(isoquinolin-1-yloxy)-2-methylpropanoyl]amino}-8-azabicyclo[3.2.1]oct-8-yl)-N-(2,2,2-trifluoroethyl)pyridine-3-carboxamide]: the concentration for half-maximal inhibition (IC50) was under 200 nM.
Consider `CC(C)(Oc1ccc(Cl)cc1Cl)C(=O)N[C@H]1C[C@H]2CC[C@@H](C1)N2c1ccc(C(=O)NCC(F)F)cn1` [Example 355, 6-(3-endo-{[2-(2,4-dichlorophenoxy)-2-methylpropanoyl]amino}-8-azabicyclo[3.2.1]oct-8-yl)-N-(2,2-difluoroethyl)pyridine-3-carboxamide], for which the IC50 is under 200 nM.
For `CC(C)(Oc1ccc(Cl)cc1S(C)(=O)=O)C(=O)NC1CC2CCC(C1)N2c1ccc(C(=O)NC2CC2(F)F)cn1` (stereo not drawn) [Example 357, 6-[3-endo-({2-[4-chloro-2-(methylsulfonyl)phenoxy]-2-methylpropanoyl}amino)-8-azabicyclo[3.2.1]oct-8-yl]-N-(2,2-difluorocyclopropyl)pyridine-3-carboxamide] the value was under 200 nM; for `CC(C)(Oc1ccc(Cl)cc1N1CCOCC1)C(=O)N[C@H]1C[C@H]2CC[C@@H](C1)N2c1ccc(C(=O)NCC(F)(F)F)cn1` [Example 359, 6-[3-endo-({2-[4-chloro-2-(morpholin-4-yl)phenoxy]-2-methylpropanoyl}amino)-8-azabicyclo[3.2.1]oct-8-yl]-N-(2,2,2-trifluoroethyl)pyridine-3-carboxamide], under 200 nM.
In the case of `CC(C)(Oc1ccc(Cl)cc1C(N)=O)C(=O)N[C@H]1C[C@H]2CC[C@@H](C1)N2c1ccc(C(=O)NCC(F)(F)F)cn1` [Example 360, 6-(3-endo-{[2-(2-carbamoyl-4-chlorophenoxy)-2-methylpropanoyl]amino}-8-azabicyclo[3.2.1]oct-8-yl)-N-(2,2,2-trifluoroethyl)pyridine-3-carboxamide], the IC50 is under 200 nM.
With `CC(C)(Oc1cc(OCCO)c(Cl)cc1Cl)C(=O)N[C@H]1C[C@H]2CC[C@@H](C1)N2c1ccc(C(=O)NCC(F)(F)F)cn1` [Example 361, 6-[3-endo-({2-[2,4-dichloro-5-(2-hydroxyethoxy)phenoxy]-2-methylpropanoyl}amino)-8-azabicyclo[3.2.1]oct-8-yl]-N-(2,2,2-trifluoroethyl)pyridine-3-carboxamide], the IC50 was under 200 nM.
`CC(C)(Oc1ccc(Cl)cc1Cl)C(=O)N[C@H]1C[C@H]2CC[C@@H](C1)N2c1ccc(C(=O)NCCN2CCOCC2)cn1` [Example 362, 6-(3-endo-{[2-(2,4-dichlorophenoxy)-2-methylpropanoyl]amino}-8-azabicyclo[3.2.1]oct-8-yl)-N-[2-(morpholin-4-yl)ethyl]pyridine-3-carboxamide]: the IC50 is under 200 nM.
Take `CC(C)(Oc1ccc(Cl)cc1OC(F)(F)F)C(=O)N[C@H]1C[C@H]2CC[C@@H](C1)N2c1ccc(C(=O)NCC(F)(F)F)cn1` [Example 363, 6-[3-endo-({2-[4-chloro-2-(trifluoromethoxy)phenoxy]-2-methylpropanoyl}amino)-8-azabicyclo[3.2.1]oct-8-yl]-N-(2,2,2-trifluoroethyl)pyridine-3-carboxamide]: the IC50 is under 200 nM.
The value for `CC(C)(Oc1ccc(Cl)cc1C(F)F)C(=O)N[C@H]1C[C@H]2CC[C@@H](C1)N2c1ccc(C(=O)NCC(F)(F)F)cn1` [Example 364, 6-[3-endo-({2-[4-chloro-2-(difluoromethyl)phenoxy]-2-methylpropanoyl}amino)-8-azabicyclo[3.2.1]oct-8-yl]-N-(2,2,2-trifluoroethyl)pyridine-3-carboxamide] was under 200 nM; that for `CC(C)(Oc1ccc(Cl)cc1C(F)F)C(=O)N[C@H]1C[C@H]2CC[C@@H](C1)N2c1ccc(S(C)(=O)=O)cn1` [Example 365, 2-[4-chloro-2-(difluoromethyl)phenoxy]-2-methyl-N-{8-[5-(methylsulfonyl)pyridin-2-yl]-8-azabicyclo[3.2.1]oct-3-endo-yl}propanamide] was under 200 nM.
In the case of `CC(C)(Oc1cccc2[nH]ccc12)C(=O)N[C@H]1C[C@H]2CC[C@@H](C1)N2c1ccc(C(=O)NCC(F)(F)F)cn1` [Example 366, 6-(3-endo-{[2-(1h-indol-4-yloxy)-2-methylpropanoyl]amino}-8-azabicyclo[3.2.1]oct-8-yl)-N-(2,2,2-trifluoroethyl)pyridine-3-carboxamide], the IC50 is under 200 nM.
As for `CC(C)(Oc1ccc(Cl)cc1Cl)C(=O)N[C@H]1C[C@H]2CC[C@@H](C1)N2c1ccc(C(=O)NCCO)cn1` [Example 367, 6-(3-endo-{[2-(2,4-dichlorophenoxy)-2-methylpropanoyl]amino}-8-azabicyclo[3.2.1]oct-8-yl)-N-(2-hydroxyethyl)pyridine-3-carboxamide], the half-inhibitory concentration (IC50) is under 200 nM.
For the compound `CC(C)NC(=O)c1ccc(N2[C@@H]3CC[C@H]2C[C@@H](NC(=O)C(C)(C)Oc2ccc(Cl)cc2S(C)(=O)=O)C3)nc1` [Example 368, 6-[3-endo-({2-[4-chloro-2-(methylsulfonyl)phenoxy]-2-methylpropanoyl}amino)-8-azabicyclo[3.2.1]oct-8-yl]-N-(propan-2-yl)pyridine-3-carboxamide], the IC50 was under 200 nM.
Take `CC(C)(Oc1ccc(F)cc1C(F)(F)F)C(=O)NC1CC2CCC(C1)N2c1ccc(C(=O)NC2CC2(F)F)cn1` (stereo not drawn) [Example 369, N-(2,2-difluorocyclopropyl)-6-[3-endo-({2-[4-fluoro-2-(trifluoromethyl)phenoxy]-2-methylpropanoyl}amino)-8-azabicyclo[3.2.1]oct-8-yl]pyridine-3-carboxamide]: the IC50 was under 200 nM.
Consider `CC(C)NC(=O)c1ccc(N2[C@@H]3CC[C@H]2C[C@@H](NC(=O)C(C)(C)Oc2ccc(Cl)cc2C(F)(F)F)C3)nc1` [Example 370, 6-[3-endo-({2-[4-chloro-2-(trifluoromethyl)phenoxy]-2-methylpropanoyl}amino)-8-azabicyclo[3.2.1]oct-8-yl]-N-(propan-2-yl)pyridine-3-carboxamide], for which the IC50 is under 200 nM.
Regarding `CC(C)(Oc1ccc(F)cc1Cl)C(=O)N[C@H]1C[C@H]2CC[C@@H](C1)N2c1ccc(C(=O)NCC(F)F)cn1` [Example 371, 6-(3-endo-{[2-(2-chloro-4-fluorophenoxy)-2-methylpropanoyl]amino}-8-azabicyclo[3.2.1]oct-8-yl)-N-(2,2-difluoroethyl)pyridine-3-carboxamide], the IC50 is under 200 nM.
With `CC(C)(Oc1ccc(F)cc1C(F)(F)F)C(=O)N[C@H]1C[C@H]2CC[C@@H](C1)N2c1ccc(C(=O)NCC(F)F)cn1` [Example 372, N-(2,2-difluoroethyl)-6-[3-endo-({2-[4-fluoro-2-(trifluoromethyl)phenoxy]-2-methylpropanoyl}amino)-8-azabicyclo[3.2.1]oct-8-yl]pyridine-3-carboxamide], the IC50 is under 200 nM.
`C[C@@H](NC(=O)c1ccc(N2C3CCC2CC(NC(=O)C(C)(C)Oc2ccc(Cl)cc2Cl)C3)nc1)C(F)(F)F` (stereo partly drawn) [Example 373, 6-(3-endo-{[2-(2,4-dichlorophenoxy)-2-methylpropanoyl]amino}-8-azabicyclo[3.2.1]oct-8-yl)-N-[(2R)-1,1,1-trifluoropropan-2-yl]pyridine-3-carboxamide]: the half-inhibitory concentration (IC50) is under 200 nM.
`C[C@H](NC(=O)c1ccc(N2C3CCC2CC(NC(=O)C(C)(C)Oc2ccc(Cl)cc2Cl)C3)nc1)C(F)(F)F` (stereo partly drawn) [Example 374, 6-(3-endo-{[2-(2,4-dichlorophenoxy)-2-methylpropanoyl]amino}-8-azabicyclo[3.2.1]oct-8-yl)-N-[(2S)-1,1,1-trifluoropropan-2-yl]pyridine-3-carboxamide]: the IC50 was under 200 nM.
For `CC(C)(Oc1ccc(Cl)cc1C(=O)O)C(=O)N[C@H]1C[C@H]2CC[C@@H](C1)N2c1ccc(C(=O)NCC(F)(F)F)cn1` [Example 375, 5-chloro-2-({2-methyl-1-oxo-1-[(8-{5-[(2,2,2-trifluoroethyl)carbamoyl]pyridin-2-yl}-8-azabicyclo[3.2.1]oct-3-endo-yl)amino]propan-2-yl}oxy)benzoic acid], the 50% inhibitory concentration (IC50) was under 200 nM.
Regarding `CC(C)(Oc1ccc(Cl)cc1CO)C(=O)N[C@H]1C[C@H]2CC[C@@H](C1)N2c1ccc(C(=O)NCC(F)(F)F)cn1` [Example 376, 6-[3-endo-({2-[4-chloro-2-(hydroxymethyl)phenoxy]-2-methylpropanoyl}amino)-8-azabicyclo[3.2.1]oct-8-yl]-N-(2,2,2-trifluoroethyl)pyridine-3-carboxamide], the IC50 is under 200 nM.

For orientation: IC50 means the concentration needed to halve the response being measured.

The record behind these values is US8163771B2, “11 β-HSD1 modulators” (Exelixis, Inc., priority 2008, dated 2012).
